Assay results: patent US9328122B2, “7-substituted Hanfangichin B derivative, and preparation method and use thereof” (HANGZHOU BENSHENG PHARMACEUTICAL CO., LTD., priority 2012, dated 2016)
Values after ≈ are worked out from the molar mass of the structure shown.

Experiments:
[1] = tested on: H9 (acute lymphoblastic leukemia) cells; assay: MTT cell growth inhibition, leukemia cells; format: cell-based, human; conditions: Homo sapiens, H9, 72 h, MTT; for IC50: read-out: IC50; for IC90: read-out: IC90
Text: (§1) Leukemia cell lines: leukemia cell lines: K562adr (drug-resistant, chronic myeloid leukemia, CML), NB4 (acute promyelocytic leukemia, AML), Kasumi-1 (acute myeloid leukemia M2 type, AML-M2), Jurkat (acute lymphoblastic leukemia, ALL), all of which were donated by Cancer Research Institute of Zhejiang University, China; and H9 (acute lymphoblastic leukemia, ALL), which was purchased from China Center for Type Culture Collection.
(§2) Reagents: The standard sample of fangchinoline (FAN) was purchased from Ci Yuan Biotechnology Co., Ltd., Shaanxi, China; and the 7-substituted fangchinoline derivatives according to the present invention.
(§3) 6000 well-growing leukemia cells were obtained and inoculated into wells of a 96-well cell culture plate. The culture medium was a RPMI-1640 cell culture medium containing 10% fetal bovine serum. After adding the 7-substituted fangchinoline derivatives of different concentrations the next day and mixing uniformly, the plate was placed in a carbon dioxide cell incubator (5% CO2) at 37° C. and incubating for 72 hours. Then the viable cell concentration was determined by the MTT method.

[2] = tested on: Jurkat (acute lymphoblastic leukemia) cells; assay: MTT cell growth inhibition, leukemia cells; format: cell-based, human; conditions: Homo sapiens, Jurkat, 72 h, MTT; for IC50: read-out: IC50; for IC90: read-out: IC90
Text: as §1, §2, §3

[3] = tested on: Kasumi-1 (acute myeloid leukemia M2 type) cells; assay: MTT cell growth inhibition, leukemia cells; format: cell-based, human; conditions: Homo sapiens, Kasumi-1, 72 h, MTT; for IC50: read-out: IC50; for IC90: read-out: IC90
Text: as §1, §2, §3

[4] = tested on: NB4 (acute promyelocytic leukemia) cells; assay: MTT cell growth inhibition, leukemia cells; format: cell-based; conditions: Homo sapiens, NB4, 72 h, MTT; for IC50: read-out: IC50; for IC90: read-out: IC90
Text: as §1, §2, §3

[5] = tested on: K562/ADR (K562adr, drug-resistant chronic myeloid leukemia) cells; assay: MTT cell growth inhibition, leukemia cells; format: cell-based; conditions: Homo sapiens, K562/ADR, 72 h, MTT; for IC50: read-out: IC50; for IC90: read-out: IC90
Text: as §1, §2, §3

[6] = tested on: CNE (nasopharyngeal carcinoma) cells; assay: MTT cell growth inhibition, solid tumor cells; format: cell-based, human; conditions: Homo sapiens, CNE, 72 h, MTT; for IC50: read-out: IC50; for IC90: read-out: IC90
Text: (§4) Hep-2 (laryngeal carcinoma), A549 (human lung cancer), CaES-17 (esophageal cancer cell), PC-3 (prostate cancer), CNE (nasopharyngeal carcinoma cell) and SK-OV-3 (ovarian cancer cell), all of which were purchased from China Center For Type Culture Collection; RKO (human colon adenocarcinoma cell), MGC-803 (human gastric cancer cell), MG-63 (osteosarcoma), and U87-MG (malignant glioma cell), all of which were purchased from Fuxiang Bio-tech Co. Ltd., Shanghai, China; PANC-1 (pancreatic cancer), Becap37 (human breast cancer cell), Hela (human cervical cancer cell) and Hep G2 (human liver cancer cell), all of which were donated by Cancer Research Institute of Zhejiang University, China.
as §3, with “human solid tumor” for “leukemia”, “DMEM High Glucose” for “a RPMI-1640”, “serum. The plate was placed in a carbon dioxide cell incubator (5% CO2) at 37° C. and incubated for 24 hours.” for “serum.”, “added with” for “adding the”, “concentration” for “concentrations the next day”, “incubated” for “incubating”

[7] = tested on: PC-3 (prostate cancer) cells; assay: MTT cell growth inhibition, solid tumor cells; format: cell-based, human; conditions: Homo sapiens, PC-3, 72 h, MTT; for IC50: read-out: IC50; for IC90: read-out: IC90
Text: as §4
as §3, with “human solid tumor” for “leukemia”, “DMEM High Glucose” for “a RPMI-1640”, “serum. The plate was placed in a carbon dioxide cell incubator (5% CO2) at 37° C. and incubated for 24 hours.” for “serum.”, “added with” for “adding the”, “concentration” for “concentrations the next day”, “incubated” for “incubating”

[8] = tested on: CaEs-17 (esophageal cancer) cells; assay: MTT cell growth inhibition, solid tumor cells; format: cell-based, human; conditions: Homo sapiens, CaEs17, CaEs-17, 72 h, MTT; for IC50: read-out: IC50; for IC90: read-out: IC90
Text: as §4
as §3, with “human solid tumor” for “leukemia”, “DMEM High Glucose” for “a RPMI-1640”, “serum. The plate was placed in a carbon dioxide cell incubator (5% CO2) at 37° C. and incubated for 24 hours.” for “serum.”, “added with” for “adding the”, “concentration” for “concentrations the next day”, “incubated” for “incubating”

[9] = tested on: PANC-1 (pancreatic cancer) cells; assay: MTT cell growth inhibition, solid tumor cells; format: cell-based, human; conditions: Homo sapiens, PANC-1, 72 h, MTT; for IC50: read-out: IC50; for IC90: read-out: IC90
Text: as §4
as §3, with “human solid tumor” for “leukemia”, “DMEM High Glucose” for “a RPMI-1640”, “serum. The plate was placed in a carbon dioxide cell incubator (5% CO2) at 37° C. and incubated for 24 hours.” for “serum.”, “added with” for “adding the”, “concentration” for “concentrations the next day”, “incubated” for “incubating”

[10] = tested on: SK-OV-3 (ovarian cancer) cells; assay: MTT cell growth inhibition, solid tumor cells; format: cell-based, human; conditions: Homo sapiens, SK-OV-3, 72 h, MTT; for IC50: read-out: IC50; for IC90: read-out: IC90
Text: as §4
as §3, with “human solid tumor” for “leukemia”, “DMEM High Glucose” for “a RPMI-1640”, “serum. The plate was placed in a carbon dioxide cell incubator (5% CO2) at 37° C. and incubated for 24 hours.” for “serum.”, “added with” for “adding the”, “concentration” for “concentrations the next day”, “incubated” for “incubating”

[11] = tested on: RKO (human colon adenocarcinoma) cells; assay: MTT cell growth inhibition, solid tumor cells; format: cell-based; conditions: Homo sapiens, RKO, 72 h, MTT; for IC50: read-out: IC50; for IC90: read-out: IC90
Text: as §4
as §3, with “human solid tumor” for “leukemia”, “DMEM High Glucose” for “a RPMI-1640”, “serum. The plate was placed in a carbon dioxide cell incubator (5% CO2) at 37° C. and incubated for 24 hours.” for “serum.”, “added with” for “adding the”, “concentration” for “concentrations the next day”, “incubated” for “incubating”

[12] = tested on: A549 (human lung cancer) cells; assay: MTT cell growth inhibition, solid tumor cells; format: cell-based; conditions: Homo sapiens, A549, 72 h, MTT; for IC50: read-out: IC50; for IC90: read-out: IC90
Text: as §4
as §3, with “human solid tumor” for “leukemia”, “DMEM High Glucose” for “a RPMI-1640”, “serum. The plate was placed in a carbon dioxide cell incubator (5% CO2) at 37° C. and incubated for 24 hours.” for “serum.”, “added with” for “adding the”, “concentration” for “concentrations the next day”, “incubated” for “incubating”

[13] = tested on: U87-MG (malignant glioma) cells; assay: MTT cell growth inhibition, solid tumor cells; format: cell-based; conditions: Homo sapiens, U-87 MG, U87-MG, 72 h, MTT; for IC50: read-out: IC50; for IC90: read-out: IC90
Text: as §4
as §3, with “human solid tumor” for “leukemia”, “DMEM High Glucose” for “a RPMI-1640”, “serum. The plate was placed in a carbon dioxide cell incubator (5% CO2) at 37° C. and incubated for 24 hours.” for “serum.”, “added with” for “adding the”, “concentration” for “concentrations the next day”, “incubated” for “incubating”

[14] = tested on: Hep G2 (human liver cancer) cells; assay: MTT cell growth inhibition, solid tumor cells; format: cell-based; conditions: Homo sapiens, HepG2, Hep G2, 72 h, MTT; for IC50: read-out: IC50; for IC90: read-out: IC90
Text: as §4
as §3, with “human solid tumor” for “leukemia”, “DMEM High Glucose” for “a RPMI-1640”, “serum. The plate was placed in a carbon dioxide cell incubator (5% CO2) at 37° C. and incubated for 24 hours.” for “serum.”, “added with” for “adding the”, “concentration” for “concentrations the next day”, “incubated” for “incubating”

[15] = tested on: MG-63 (osteosarcoma) cells; assay: MTT cell growth inhibition, solid tumor cells; format: cell-based; conditions: Homo sapiens, MG-63, 72 h, MTT; for IC50: read-out: IC50; for IC90: read-out: IC90
Text: as §4
as §3, with “human solid tumor” for “leukemia”, “DMEM High Glucose” for “a RPMI-1640”, “serum. The plate was placed in a carbon dioxide cell incubator (5% CO2) at 37° C. and incubated for 24 hours.” for “serum.”, “added with” for “adding the”, “concentration” for “concentrations the next day”, “incubated” for “incubating”

[16] = tested on: Hep-2 (laryngeal carcinoma) cells; assay: MTT cell growth inhibition, solid tumor cells; format: cell-based; conditions: Homo sapiens, Hep-2, 72 h, MTT; for IC50: read-out: IC50; for IC90: read-out: IC90
Text: as §4
as §3, with “human solid tumor” for “leukemia”, “DMEM High Glucose” for “a RPMI-1640”, “serum. The plate was placed in a carbon dioxide cell incubator (5% CO2) at 37° C. and incubated for 24 hours.” for “serum.”, “added with” for “adding the”, “concentration” for “concentrations the next day”, “incubated” for “incubating”

tumor = assay: Antitumor activity compared with fangchinoline, overall statement; format: cell-based; conditions: tumor type not specified
[17] = tested on: RPMI 8226 (multiple myeloma) cells; assay: MTT cell growth inhibition, multiple myeloma cells; format: cell-based, human; conditions: Homo sapiens, RPMI 8226, 72 h, MTT; for IC50: read-out: IC50; for IC90: read-out: IC90
Description: Myeloma cell lines: RPMI8226 (multiple myeloma), purchased from Fuxiang Bio-tech Co. Ltd., Shanghai, China.
as §3, with “well-growing” for “well-growing leukemia”, “incubated” for “incubating”

IC50 [1] [µg/mL]	IC90 [1] [µg/mL]	IC50 [2] [µg/mL]	IC90 [2] [µg/mL]	IC50 [3] [µg/mL]	IC90 [3] [µg/mL]	IC50 [4] [µg/mL]	IC90 [4] [µg/mL]	IC50 [5] [µg/mL]	IC90 [5] [µg/mL]	IC50 [6] [µg/mL]	IC90 [6] [µg/mL]	IC50 [7] [µg/mL]	IC90 [7] [µg/mL]	IC50 [8] [µg/mL]	IC90 [8] [µg/mL]	IC50 [9] [µg/mL]	IC90 [9] [µg/mL]	IC50 [10] [µg/mL]	IC90 [10] [µg/mL]	Compound	other results
1.8 (≈ 2.35 µM)	3.3 (≈ 4.3 µM)	1.42 (≈ 1.85 µM)	2.91 (≈ 3.79 µM)	3.22 (≈ 4.2 µM)	7.22 (≈ 9.42 µM)	0.99 (≈ 1.29 µM)	2.93 (≈ 3.82 µM)	0.6 (≈ 0.782 µM)	2.15 (≈ 2.8 µM)	3.38 (≈ 4.41 µM)	7.34 (≈ 9.57 µM)	3.95 (≈ 5.15 µM)	7.45 (≈ 9.71 µM)	3.1 (≈ 4.04 µM)	7.59 (≈ 9.9 µM)	3.62 (≈ 4.72 µM)	7.25 (≈ 9.45 µM)	6.19 (≈ 8.07 µM)	11.2 (≈ 14.6 µM)	COc1ccc2cc1Oc1ccc(cc1)C[C@H]1c3cc(c(OC)cc3CCN1C)Oc1c(OCc3ccc(C(F)(F)F)cc3)c(OC)cc3c1[C@H](C2)N(C)CC3 [BS-FC-216]	IC50 [11]: 1.69 µg/mL (≈ 2.2 µM); IC90 [11]: 5.79 µg/mL (≈ 7.55 µM); IC50 [12]: 2.7 µg/mL (≈ 3.52 µM); IC90 [12]: 5.9 µg/mL (≈ 7.69 µM); IC50 [13]: 2.11 µg/mL (≈ 2.75 µM); IC90 [13]: 7.74 µg/mL (≈ 10.1 µM); IC50 [14]: 2.54 µg/mL (≈ 3.31 µM); IC90 [14]: 5.91 µg/mL (≈ 7.71 µM); IC50 [15]: 3.4 µg/mL (≈ 4.43 µM); IC90 [15]: 5.5 µg/mL (≈ 7.17 µM); IC50 [16]: 3.69 µg/mL (≈ 4.81 µM); IC90 [16]: 7.88 µg/mL (≈ 10.3 µM); antitumor activity compared with that of fangchinoline (tumor): significantly superior; IC50 [17]: 0.13 µg/mL (≈ 0.17 µM); IC90 [17]: 0.77 µg/mL (≈ 1 µM)
3.23 (≈ 4.77 µM)	6.64 (≈ 9.81 µM)	0.93 (≈ 1.37 µM)	3.09 (≈ 4.57 µM)	1.15 (≈ 1.7 µM)	3.72 (≈ 5.5 µM)	0.66 (≈ 0.975 µM)	3.16 (≈ 4.67 µM)	0.43 (≈ 0.635 µM)	4 (≈ 5.91 µM)	3.2 (≈ 4.73 µM)	7.6 (≈ 11.2 µM)	4.55 (≈ 6.72 µM)	7.61 (≈ 11.2 µM)	2.6 (≈ 3.84 µM)	9.32 (≈ 13.8 µM)	2.79 (≈ 4.12 µM)	7.68 (≈ 11.3 µM)	5.41 (≈ 7.99 µM)	14.2 (≈ 21.1 µM)	COc1ccc2cc1Oc1ccc(cc1)C[C@H]1c3cc(c(OC)cc3CCN1C)Oc1c(OC3CCCC3)c(OC)cc3c1[C@H](C2)N(C)CC3 [BS-FC-220]	IC50 [11]: 1.25 µg/mL (≈ 1.85 µM); IC90 [11]: 3.73 µg/mL (≈ 5.51 µM); IC50 [12]: 2.55 µg/mL (≈ 3.77 µM); IC90 [12]: 4.97 µg/mL (≈ 7.34 µM); IC50 [13]: 2.28 µg/mL (≈ 3.37 µM); IC90 [13]: 7.03 µg/mL (≈ 10.4 µM); IC50 [14]: 2.37 µg/mL (≈ 3.5 µM); IC90 [14]: 7.01 µg/mL (≈ 10.4 µM); IC50 [15]: 2.8 µg/mL (≈ 4.14 µM); IC90 [15]: 3.6 µg/mL (≈ 5.32 µM); IC50 [16]: 4.2 µg/mL (≈ 6.21 µM); IC90 [16]: 10.3 µg/mL (≈ 15.2 µM); antitumor activity compared with that of fangchinoline (tumor): significantly superior; IC50 [17]: 0.12 µg/mL (≈ 0.177 µM); IC90 [17]: 0.5 µg/mL (≈ 0.739 µM)
